US20260042854A1, “ANTI-GLP-1R ANTIBODIES AND USES THEREOF” (SCIWIND BIOSCIENCES USA CO., LTD, priority 2022, published 2026)

Columns and labels:
humanized GLP-1R mice = experiment: IPGTT in humanized GLP-1R mice (exogenous GLP-1 added); format: in vivo, mouse; details: GLP-1 25 nmol/kg i.p. with glucose
Experimental: 10-week-old female humanized GLP-1R mice (25-28 g, Shanghai Model Organisms Center Inc.) were assigned into 5 groups, with 5 mice in each group, and each group was treated according to the scheme in Table 6. The antibody treatment groups were subcutaneously injected with antibody, while the other groups were subcutaneously injected with vehicle (PBS) once a week for 2 consecutive weeks. IPGTTs were performed one day after the administration. The first subcutaneous administration of the antibody was on Day 0, and the second subcutaneous administration was on Day 7.
The blood glucose levels of the mice before (0 min) and 15 min, 30 min, 60 min, 90 min, 120 min and 180 min after the administration of glucose were measured with blood glucose meter. The AUCs of the blood glucose-time curves of each mouse from 0 to 180 min were calculated with GraphPad Prism 9. […] Statistical differences were analyzed with One-way ANOVA. […]
10-week-old female humanized GLP-1R mice (25-28 g) were assigned into 5 groups, with 5 mice in each group, and each group was treated according to the scheme in Table 10. […] The blood glucose levels of the mice before (0 min) and 15 min, 30 min, 60 min, 90 min, 120 min and 180 min after the administration of glucose were measured with blood glucose meter. The AUCs of the blood glucose-time curves of each mouse were calculated with GraphPad Prism 9. […]

C57BL/6 mice = experiment: IPGTT in C57BL/6 mice (exogenous GLP-1 added); format: in vivo, mouse; details: GLP-1 25.0 nmol/kg i.p. with glucose
Experimental: 7-9-week-old male C57BL/6 mice (22-26 g) were assigned into 5 groups, with 5 mice in each group, and the mice in each group were treated according to the scheme shown in Table 6. The antibody treatment groups were given a single subcutaneous injection, and were fasted for 18 hours after the administration. […] The blood glucose levels of the mice before (0 min) and 15 min, 30 min. 60 min, 90 min, 120 min and 180 min after the administration of glucose were measured with blood glucose meter. The AUCs of the blood glucose-time curves of each mouse from 0 to 180 min were calculated with GraphPad Prism 9. The blood glucose levels and the AUCs were shown in Mean±SEM and the differences among groups were compared. Statistical differences were analyzed with One-way ANOVA. […] The significance markers were not shown in the line chart since they would overlap and be difficult to distinguish.

Mouse GLP-1R = target: T1, Mouse GLP-1R (Mus musculus, UniProt O35659); experiment: cAMP HTRF antagonism assay in HEK293 transfected with mouse GLP-1R; format: cell-based
T1 construct: expressed in transfected cells; host or cells: HEK293 (ATCC, CRL-1573)
T1 sequence (O35659 22-463): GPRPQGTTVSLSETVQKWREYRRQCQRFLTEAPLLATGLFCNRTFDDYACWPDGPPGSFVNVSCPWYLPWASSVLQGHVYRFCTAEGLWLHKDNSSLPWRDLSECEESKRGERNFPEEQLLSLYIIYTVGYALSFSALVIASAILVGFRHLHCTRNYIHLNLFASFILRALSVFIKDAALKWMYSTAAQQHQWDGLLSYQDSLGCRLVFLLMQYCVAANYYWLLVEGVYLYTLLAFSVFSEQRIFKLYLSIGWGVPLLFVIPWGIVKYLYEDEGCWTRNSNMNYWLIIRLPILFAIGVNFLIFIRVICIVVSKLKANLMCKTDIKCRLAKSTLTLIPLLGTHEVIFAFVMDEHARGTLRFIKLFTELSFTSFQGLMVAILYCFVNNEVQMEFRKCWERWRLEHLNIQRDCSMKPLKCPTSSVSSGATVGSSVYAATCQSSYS
Experimental: HEK293 cells (ATCC, cat no. CRL-1573) were transfected with GLP-1R_pcDNA3.1/G418 (+) plasmids which can transcribe the mRNA of human (NM_002062.5), monkey (JN033215.1) and mouse (NM_021332.2) GLP-1R polypeptide. […] The plate was further incubated at 37° C. for 120 minutes. Finally, the CAMP level was measured with cAMP HTRF kit (Cisbio, 62AM4PEB). […] The data were analyzed by four-parameter curve fitting with GraphPad Prism 9, and IC50 was calculated.

Substance | effect of GLP-1 on blood glucose levels (in words) (humanized GLP-1R mice) | effect of GLP-1 on blood glucose levels (in words) (C57BL/6 mice) | antagonism of activation of mouse GLP-1R by GLP-1 (in words) (Mouse GLP-1R)
GLP-1: native GLP-1 (7-37aa, R&D Systems, cat no. 5374/1), agonist used to activate GLP-1R (HAEGTFTSDVSSYLEGQAAKEFIAWLVKGRG; Glucagon-like peptide 1(7-37); UniProt P01275 98-128, looked up) [reference compound] | can effectively lower the blood glucose levels | could lower blood glucose levels | 
exendin 9-39 [Avexitide, reference compound] |  |  | does antagonize the activation of mouse GLP-1R by GLP-1
